Among the data in US20090155209A1, “NOVEL MACROCYCLIC INHIBITORS OF HEPATITIS C VIRUS REPLICATION” (priority 2007, published 2009) are EC50 and IC50 values, retold here.

In assay [1] the target is T1, NS3-NS4 (Hepatitis C virus genotype 1a, UniProt P27958). Description: cell-based. The following applies: EC50, NS3-NS4 activity.
Assay [2] addresses T1, NS3-NS4. Description: NS3-NS4 activity, IC50 (Example 37, Table 8). It counts as biochemical.

Each structure is given as a SMILES string. A value given as a limit tells only on which side of the number the result lay.

What is called EC50 is the concentration giving half of the maximal effect. Lower therefore signals higher potency in that assay. Usually IC50 stands for the concentration needed to halve the response being measured. Higher therefore signals a need for much substance.

T1 sequence (P27958 1027-1657): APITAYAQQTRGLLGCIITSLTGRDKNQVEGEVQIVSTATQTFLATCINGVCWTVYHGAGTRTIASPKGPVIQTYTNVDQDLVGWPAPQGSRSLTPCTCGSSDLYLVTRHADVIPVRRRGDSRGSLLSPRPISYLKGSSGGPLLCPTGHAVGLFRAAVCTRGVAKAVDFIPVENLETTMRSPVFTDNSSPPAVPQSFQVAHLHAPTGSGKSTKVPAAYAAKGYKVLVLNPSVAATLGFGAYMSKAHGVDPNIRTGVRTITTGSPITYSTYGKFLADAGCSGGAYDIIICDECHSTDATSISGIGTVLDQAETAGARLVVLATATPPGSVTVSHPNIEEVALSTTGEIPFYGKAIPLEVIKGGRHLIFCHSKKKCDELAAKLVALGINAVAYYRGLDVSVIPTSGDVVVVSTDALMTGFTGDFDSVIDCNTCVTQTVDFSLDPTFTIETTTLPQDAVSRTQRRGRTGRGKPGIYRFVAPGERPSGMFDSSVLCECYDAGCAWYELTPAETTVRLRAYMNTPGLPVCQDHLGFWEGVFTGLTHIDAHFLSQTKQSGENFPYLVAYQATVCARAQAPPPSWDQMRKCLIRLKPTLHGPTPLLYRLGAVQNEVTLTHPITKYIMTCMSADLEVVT
T1 sequence (P27958 1658-1711): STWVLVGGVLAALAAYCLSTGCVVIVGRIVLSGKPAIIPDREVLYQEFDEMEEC

As for `CC(C)(C)OC(=O)N[C@H]1CCCCC/C=C\[C@@H]2C[C@@]2(C(=O)NS(=O)(=O)c2cc3ccccc3o2)NC(=O)[C@@H]2C[C@@H](OC(=O)N3Cc4cccc(F)c4C3)CN2C1=O` [Compound 542], the EC50 in assay [1] was 100 to 1000 nM. Moreover, in assay [2], the IC50 is under 100 nM.
Turning to `C=CCC1(S(=O)(=O)NC(=O)[C@@]23C[C@H]2/C=C\CCCCC[C@H](NC(=O)OC(C)(C)C)C(=O)N2C[C@H](OC(=O)N4Cc5cccc(F)c5C4)C[C@H]2C(=O)N3)CC1` [Compound 543], the EC50 in assay [1] was under 100 nM. Besides, in assay [2], the IC50 is under 100 nM.
The compound `CCCS(=O)(=O)NC(=O)[C@@]12C[C@H]1/C=C\CCCCC[C@H](NC(=O)OC(C)(C)C)C(=O)N1C[C@H](OC(=O)N3Cc4cccc(F)c4C3)C[C@H]1C(=O)N2` [Compound 550] gave an EC50 in assay [1] of under 100 nM. In addition, the IC50 in assay [2] was under 100 nM.
Compound `CC(C)CS(=O)(=O)NC(=O)[C@@]12C[C@H]1/C=C\CCCCC[C@H](NC(=O)OC(C)(C)C)C(=O)N1C[C@H](OC(=O)N3Cc4cccc(F)c4C3)C[C@H]1C(=O)N2` [Compound 551] registered an EC50 in assay [1] of under 100 nM. In assay [2], the IC50 was under 100 nM.
Consider `CC(C)(C)OC(=O)N[C@H]1CCCCCCC[C@@H]2C[C@@]2(C(=O)NS(=O)(=O)c2ccccc2)NC(=O)[C@@H]2C[C@@H](OC(=O)N3Cc4cccc(F)c4C3)CN2C1=O` [Compound 601], for which the EC50 in assay [1] was under 100 nM. In assay [2], this compound returned an IC50 of under 100 nM.
Take `Cc1ccccc1S(=O)(=O)NC(=O)[C@@]12C[C@H]1CCCCCCC[C@H](NC(=O)OC(C)(C)C)C(=O)N1C[C@H](OC(=O)N3Cc4cccc(F)c4C3)C[C@H]1C(=O)N2` [Compound 602]: the EC50 in assay [1] is under 100 nM. The compound also gave an IC50 in assay [2] of under 100 nM.
For `CC(C)(C)OC(=O)N[C@H]1CCCCCCC[C@@H]2C[C@@]2(C(=O)NS(=O)(=O)c2ccccc2Cl)NC(=O)[C@@H]2C[C@@H](OC(=O)N3Cc4cccc(F)c4C3)CN2C1=O` [Compound 603], the EC50 in assay [1] was under 100 nM. This compound also registered an IC50 in assay [2] of under 100 nM.
With `CC(C)(C)OC(=O)N[C@H]1CCCCCCC[C@@H]2C[C@@]2(C(=O)NS(=O)(=O)c2ccc(Cl)cc2)NC(=O)[C@@H]2C[C@@H](OC(=O)N3Cc4cccc(F)c4C3)CN2C1=O` [Compound 604], in assay [1], the EC50 was under 100 nM. The same compound displayed an IC50 in assay [2] of under 100 nM.
Turning to `CC(C)(C)OC(=O)N[C@H]1CCCCCCC[C@@H]2C[C@@]2(C(=O)NS(=O)(=O)c2ccccc2C(F)(F)F)NC(=O)[C@@H]2C[C@@H](OC(=O)N3Cc4cccc(F)c4C3)CN2C1=O` [Compound 605], the EC50 in assay [1] was under 100 nM. In assay [2], the IC50 was under 100 nM.
As for `CC(C)(C)OC(=O)N[C@H]1CCCCCCC[C@@H]2C[C@@]2(C(=O)NS(=O)(=O)c2cc(Cl)sc2Cl)NC(=O)[C@@H]2C[C@@H](OC(=O)N3Cc4cccc(F)c4C3)CN2C1=O` [Compound 606], the EC50 in assay [1] was under 100 nM. This compound also returned an IC50 in assay [2] of under 100 nM.
Turning to `Cc1ccccc1CS(=O)(=O)NC(=O)[C@@]12C[C@H]1CCCCCCC[C@H](NC(=O)OC(C)(C)C)C(=O)N1C[C@H](OC(=O)N3Cc4cccc(F)c4C3)C[C@H]1C(=O)N2` [Compound 613], in assay [1], the EC50 was under 100 nM. In assay [2], this compound had an IC50 of under 100 nM.
Consider `Cc1ccc(C)c(CS(=O)(=O)NC(=O)[C@@]23C[C@H]2CCCCCCC[C@H](NC(=O)OC(C)(C)C)C(=O)N2C[C@H](OC(=O)N4Cc5cccc(F)c5C4)C[C@H]2C(=O)N3)c1` [Compound 629], for which the EC50 in assay [1] was under 100 nM. The compound further had an IC50 in assay [2] of under 100 nM.
In the case of `COc1cc(CS(=O)(=O)NC(=O)[C@@]23C[C@H]2CCCCCCC[C@H](NC(=O)OC(C)(C)C)C(=O)N2C[C@H](OC(=O)N4Cc5cccc(F)c5C4)C[C@H]2C(=O)N3)cc(OC)c1` [Compound 632], the EC50 in assay [1] lay in the range of 100 to 1000 nM. The compound also showed an IC50 in assay [2] of under 100 nM.
Regarding `CC(C)(C)OC(=O)N[C@H]1CCCCCCC[C@@H]2C[C@@]2(C(=O)NS(=O)(=O)c2ccc(Cl)nc2Cl)NC(=O)[C@@H]2C[C@@H](OC(=O)N3Cc4cccc(F)c4C3)CN2C1=O` [Compound 637], in assay [1], the EC50 lay within 100 to 1000 nM. Also, in assay [2], the half-maximal inhibitory concentration (IC50) is under 100 nM.
For `COc1ccc(S(=O)(=O)NC(=O)[C@@]23C[C@H]2CCCCCCC[C@H](NC(=O)OC(C)(C)C)C(=O)N2C[C@H](OC(=O)N4Cc5cccc(F)c5C4)C[C@H]2C(=O)N3)cn1` [Compound 638], the EC50 in assay [1] was under 100 nM. Also, the IC50 in assay [2] was under 100 nM.
The compound `Cc1csc(S(=O)(=O)NC(=O)[C@@]23C[C@H]2CCCCCCC[C@H](NC(=O)OC(C)(C)C)C(=O)N2C[C@H](OC(=O)N4Cc5cccc(F)c5C4)C[C@H]2C(=O)N3)c1` [Compound 645] showed an EC50 in assay [1] of under 100 nM. Also, the IC50 in assay [2] was under 100 nM.
As for `CC(C)(C)OC(=O)N[C@H]1CCCCCCC[C@@H]2C[C@@]2(C(=O)NS(=O)(=O)c2cc3ccccc3o2)NC(=O)[C@@H]2C[C@@H](OC(=O)N3Cc4cccc(F)c4C3)CN2C1=O` [Compound 648], the EC50 in assay [1] lay within 100 to 1000 nM. Moreover, the IC50 in assay [2] is under 100 nM.
Compound `C=CCC1(S(=O)(=O)NC(=O)[C@@]23C[C@H]2CCCCCCC[C@H](NC(=O)OC(C)(C)C)C(=O)N2C[C@H](OC(=O)N4Cc5cccc(F)c5C4)C[C@H]2C(=O)N3)CC1` [Compound 649] registered an EC50 in assay [1] of under 100 nM. The IC50 in assay [2] is under 100 nM.
Take `CCC1(S(=O)(=O)NC(=O)[C@@]23C[C@H]2CCCCCCC[C@H](NC(=O)OC(C)(C)C)C(=O)N2C[C@H](OC(=O)N4Cc5cccc(F)c5C4)C[C@H]2C(=O)N3)CC1` [Compound 650]: the EC50 in assay [1] is under 100 nM. In assay [2], the IC50 is under 100 nM.
As to `CCCC1(S(=O)(=O)NC(=O)[C@@]23C[C@H]2CCCCCCC[C@H](NC(=O)OC(C)(C)C)C(=O)N2C[C@H](OC(=O)N4Cc5cccc(F)c5C4)C[C@H]2C(=O)N3)CC1` [Compound 651], in assay [1], the EC50 was under 100 nM. In assay [2], the IC50 was under 100 nM.
`COCC1(S(=O)(=O)NC(=O)[C@@]23C[C@H]2CCCCCCC[C@H](NC(=O)OC(C)(C)C)C(=O)N2C[C@H](OC(=O)N4Cc5cccc(F)c5C4)C[C@H]2C(=O)N3)CC1` [Compound 652] yielded an EC50 in assay [1] of under 100 nM. The IC50 in assay [2] was under 100 nM.
On to `CC(C)C1(S(=O)(=O)NC(=O)[C@@]23C[C@H]2CCCCCCC[C@H](NC(=O)OC(C)(C)C)C(=O)N2C[C@H](OC(=O)N4Cc5cccc(F)c5C4)C[C@H]2C(=O)N3)CC1` [Compound 653], for which the EC50 in assay [1] was under 100 nM. Besides, in assay [2], the IC50 was under 100 nM.
Take `CC(C)CC1(S(=O)(=O)NC(=O)[C@@]23C[C@H]2CCCCCCC[C@H](NC(=O)OC(C)(C)C)C(=O)N2C[C@H](OC(=O)N4Cc5cccc(F)c5C4)C[C@H]2C(=O)N3)CC1` [Compound 654]: the EC50 in assay [1] is under 100 nM. The compound also had an IC50 in assay [2] of under 100 nM.
With `CCCS(=O)(=O)NC(=O)[C@@]12C[C@H]1CCCCCCC[C@H](NC(=O)OC(C)(C)C)C(=O)N1C[C@H](OC(=O)N3Cc4cccc(F)c4C3)C[C@H]1C(=O)N2` [Compound 655], the EC50 in assay [1] is under 100 nM. This compound registered an IC50 in assay [2] of under 100 nM.
Compound `CC(C)CS(=O)(=O)NC(=O)[C@@]12C[C@H]1CCCCCCC[C@H](NC(=O)OC(C)(C)C)C(=O)N1C[C@H](OC(=O)N3Cc4cccc(F)c4C3)C[C@H]1C(=O)N2` [Compound 656] displayed a 50% effective concentration (EC50) in assay [1] of under 100 nM. In assay [2], the IC50 is under 100 nM.
As for `Cc1cccc(ONC(=O)[C@@]23C[C@H]2/C=C\CCCCC[C@H](NC(=O)OC(C)(C)C)C(=O)N2C[C@H](OC(=O)N4Cc5cccc(F)c5C4)C[C@H]2C(=O)N3)c1` [Compound 702], the EC50 in assay [1] lay in the range of 1000 to 10000 nM. In addition, the IC50 in assay [2] is under 100 nM.
Compound `CC(C)(C)OC(=O)N[C@H]1CCCCC/C=C\[C@@H]2C[C@@]2(C(=O)NOc2cccc(F)c2)NC(=O)[C@@H]2C[C@@H](OC(=O)N3Cc4cccc(F)c4C3)CN2C1=O` [Compound 704] showed an EC50 in assay [1] of 1000 to 10000 nM. This compound showed an IC50 in assay [2] of under 100 nM.
In the case of `CC(C)(C)OC(=O)N[C@H]1CCCCC/C=C\[C@@H]2C[C@@]2(C(=O)NOc2ccc(Cl)cc2)NC(=O)[C@@H]2C[C@@H](OC(=O)N3Cc4cccc(F)c4C3)CN2C1=O` [Compound 707], in assay [1], the EC50 was 1000 to 10000 nM. Moreover, the IC50 in assay [2] was under 100 nM.
In the same order, the values of `COc1cccc(ONC(=O)[C@@]23C[C@H]2/C=C\CCCCC[C@H](NC(=O)OC(C)(C)C)C(=O)N2C[C@H](OC(=O)N4Cc5cccc(F)c5C4)C[C@H]2C(=O)N3)c1` [Compound 708] are 1000 to 10000 nM and under 100 nM.
`CC(C)(C)OC(=O)N[C@H]1CCCCC/C=C\[C@@H]2C[C@@]2(C(=O)NOc2cccc(C(F)(F)F)c2)NC(=O)[C@@H]2C[C@@H](OC(=O)N3Cc4cccc(F)c4C3)CN2C1=O` [Compound 709] gave an EC50 in assay [1] of 1000 to 10000 nM. The same compound displayed an IC50 in assay [2] of under 100 nM.
In the same order, the values of `CC(C)(C)OC(=O)N[C@H]1CCCCC/C=C\[C@@H]2C[C@@]2(C(=O)NOc2ccc(-c3ccccc3)cc2)NC(=O)[C@@H]2C[C@@H](OC(=O)N3Cc4cccc(F)c4C3)CN2C1=O` [Compound 710] are 1000 to 10000 nM and under 100 nM.
Compound `CC(C)(C)OC(=O)N[C@H]1CCCCC/C=C\[C@@H]2C[C@@]2(C(=O)NOc2ccccc2)NC(=O)[C@@H]2C[C@@H](OC(=O)N3Cc4cccc(F)c4C3)CN2C1=O` [Compound 711] had an EC50 in assay [1] of 1000 to 10000 nM. The compound further returned an IC50 in assay [2] of under 100 nM.
Compound `Cc1cccc(ONC(=O)[C@@]23C[C@H]2/C=C\CCCCC[C@H](NC(=O)OC(C)(C)C)C(=O)N2C[C@H](OC(=O)N4Cc5cccc(F)c5C4)C[C@H]2C(=O)N3)c1C` [Compound 712] came in with an EC50 in assay [1] of 1000 to 10000 nM. In addition, the IC50 in assay [2] is under 100 nM.
For the compound `Cc1ccc(C)c(ONC(=O)[C@@]23C[C@H]2/C=C\CCCCC[C@H](NC(=O)OC(C)(C)C)C(=O)N2C[C@H](OC(=O)N4Cc5cccc(F)c5C4)C[C@H]2C(=O)N3)c1` [Compound 713], in assay [1], the EC50 was in the range of 1000 to 10000 nM. The compound also registered an IC50 in assay [2] of under 100 nM.
`Cc1ccc(ONC(=O)[C@@]23C[C@H]2/C=C\CCCCC[C@H](NC(=O)OC(C)(C)C)C(=O)N2C[C@H](OC(=O)N4Cc5cccc(F)c5C4)C[C@H]2C(=O)N3)cc1C` [Compound 714] returned an EC50 in assay [1] of 1000 to 10000 nM. In assay [2], this compound showed an IC50 of under 100 nM.
In the same order, the values of `Cc1cc(C)cc(ONC(=O)[C@@]23C[C@H]2/C=C\CCCCC[C@H](NC(=O)OC(C)(C)C)C(=O)N2C[C@H](OC(=O)N4Cc5cccc(F)c5C4)C[C@H]2C(=O)N3)c1` [Compound 715] are 1000 to 10000 nM and under 100 nM.
